In patent publication US20260198495A1, “BINARY INSECTICIDE COMPOSITION AND USE THEREOF” (SHENYANG SINOCHEM AGROCHEMICALS R & D CO., LTD., priority 2022, published 2026):

Legend:
Type in all cases: in vivo
[1] = system: Aphis citricola van der Goot nymphs; assay: Joint toxicity of I-72 + nicotine, Example 72, Table 72; details: A = compound I-72, B = nicotine, apple leaf spraying, 48 hours
Experimental: Test target: Aphis citricola van der Goot nymphs.
(§1) Preparation of the pesticide solution: according to different test requirements, the test samples were accurately weighed respectively with an electronic analytical balance. The technical pesticides were dissolved in acetone, and then diluted with 0.1% Tween 80 water into a series of pesticide solutions with a certain concentration gradient according to the experimental design dosage.
(§2) Experimental method: first, apple leaves with uniform and consistent Aphis citricola van der Goot were selected, with about 30-40 insects on each leaf. Then, they were evenly sprayed with the pesticide solution in the order from low dosage to high dosage according to the experimental design, with 1.5 mL for each leaf and 3 replicates for each treatment. In addition, a blank control was set up.
(§3) The treated test materials were placed in an observation room, and the temperature, humidity and illumination of the observation room could be adjusted as needed. The number of dead and live insects was investigated 48 hours later. […] Then, the co-toxicity coefficient of each ratio was calculated using the Sun Y-P method to evaluate the mixing effect (the same as in Example 1).

Rhizoctonia solani = assay: Control efficacy against Rhizoctonia solani, rice seedling potting method, Example 89, Table 89; details: rice seedlings, foliar spraying
Experimental: Control efficacy of the composition containing the compound I-72 against Rhizoctonia solani
Test target: Rhizoctonia solani, a sensitive strain cultured indoors.
The trial adopted the seedling potting method. Test crop: rice. Experimental method: the rice seedlings were cultured to the 2-leaf stage in the greenhouse of the experimental materials. Foliar spraying treatment was performed on the crop sprayer according to the designed dosage. The test target strain was inoculated 24 hours after the pesticide treatment. All the inoculated experimental materials were cultured in a phytotron. […] The disease grading and the calculation method of the control efficacy both referred to the agricultural industry standards of the People's Republic of China.

adult Phyllotreta spp. = assay: Joint toxicity of I-72 + organophosphorus insecticides, cabbage seedling spraying, Example 19, Table 19; details: adults, cabbage seedling spraying, 72 h; A = compound I-72, B = acephate; read-out: LC50
Experimental: Test target: adult Phyllotreta spp., a sensitive strain reared indoors.
as §1
Experimental method: first, fresh cabbage seedlings cultivated in the greenhouse were selected and evenly sprayed with the pesticide solution in the order from low dosage to high dosage according to the experimental design. After natural air-drying in the shade, they were covered with a glass cover, and uniform and healthy test insects were introduced, with 10 insects for each treatment and 3 replicates for each treatment. In addition, a blank control was set up.
(§4) The treated test materials were placed in an observation room, and the temperature, humidity and illumination of the observation room could be adjusted as needed. The number of dead and live insects was investigated 72 hours later. The corrected mortality rate was calculated using the Abbott's formula, and statistical analysis was performed with the DPS data processing software to obtain the toxicity regression equation, LC50 value and 95% confidence limit of each single test pesticide and each mixture of different ratios. Then, the co-toxicity coefficient of each ratio was calculated using the Sun Y-P method to evaluate the mixing effect (the same as in Example 1).

[2] = system: Aphis gossypii Glover nymphs; assay: Joint toxicity of I-72 + organophosphorus insecticides, cotton leaf spraying, Example 17, Table 17; details: nymphs, cotton leaf spraying, 48 h, A = compound I-72, B = diazinon, read-out: LC50
Experimental: Test target: Aphis gossypii Glover nymphs, a sensitive strain reared indoors.
as §1
as §2, with “cotton” for “apple”, “gossypii” for “citricola van der Goot”, “20” for “30-40”
as §4, with “48” for “72”

[3] = system: 2nd-instar larvae of Plutella xylostella; assay: Joint toxicity of I-72 + beta-cypermethrin, Example 43, Table 43; details: in Brassica oleracea, foliar, 72 h
Experimental: as §1
Experimental method: first, cabbage leaves were selected and dipped in the prepared pesticide solution for 10 s in the order from low dosage to high dosage according to the experimental design. After natural air-drying in the shade, they were placed in a 9-cm-diameter Petri dish with filter paper, and uniform and healthy test insects were introduced, with 10 insects for each treatment and 3 replicates for each treatment. In addition, a blank control was set up.
The treated test materials were placed in an observation room, and the temperature, humidity and illumination of the observation room could be adjusted as needed. The number of dead and live insects was investigated 72 hours later.

[4] = system: Myzus persicae (Sulzer) nymphs; assay: Joint toxicity of I-72 + cyantraniliprole, Example 59, Table 59; details: A = compound I-72, B = cyantraniliprole, cabbage leaf spraying, 48 hours, read-out: LC50
Experimental: Test target: Myzus persicae (Sulzer) nymphs, a sensitive strain reared indoors.
as §1
as §2, with “cabbage” for “apple”, “Myzus persicae (Sulzer)” for “Aphis citricola van der Goot”, “mL of the solution” for “mL”
as §3

[5] = system: 2nd-instar larvae of Chilo suppressalis (Walker); assay: Joint toxicity of I-72 + abamectin, rice stalk spraying, Example 7, Table 7; details: Chilo suppressalis, resistant 2nd-instar larvae, 72 h, A = compound I-72, B = abamectin, read-out: LC50
Experimental: Test target: 2nd-instar larvae of Chilo suppressalis (Walker). The insect source was collected from Nanchang, Jiangxi Province, and it is the 11th generation continuously cultured indoors, with a relatively high resistance level to amide pesticides such as chlorantraniliprole.
Test conditions: temperature: 25-27° C., humidity: RH 60%, and illumination: L:D=14:10
Preparation method: the test pesticides were accurately weighed respectively with an electronic analytical balance. After the two technical materials were respectively added into an appropriate amount of solvent and completely dissolved, the stock solution of the required concentration was prepared with water containing 0.1% Tween 80. The stock solutions of the two active ingredients were mixed in a certain ratio to prepare a mixed solution, which was then diluted respectively into a series of pesticide solutions with a certain concentration gradient according to the experimental design dosage.
Experimental method: the spraying method was adopted. […] The corrected mortality rate was calculated using the Abbott's formula, and the DPS data processing software was used for statistical analysis to calculate the toxicities (LC50 values) of the single test pesticides and the mixtures under the test ratios. […]

For `CN(C(=O)c1ccc2c(c1)OC(F)(F)O2)c1cccc(C(=O)Nc2c(Br)cc(C(F)(C(F)(F)F)C(F)(F)F)cc2OC(F)F)c1F` [Compound I-72], the LC50 [1] was 3.06 µg/mL, the Control efficacy (Rhizoctonia solani; 5 mg/L, A = compound I-72, B = coumoxystrobin) was 0% and the Control efficacy (Rhizoctonia solani; 5 mg/L, A = compound I-72, B = pyraoxystrobin) was 0%. The Control efficacy (Rhizoctonia solani; 10 mg/L, A = compound I-72, B = coumoxystrobin) was 0%, the Control efficacy (Rhizoctonia solani; 10 mg/L, A = compound I-72, B = pyraoxystrobin) was 0% and the Control efficacy (Rhizoctonia solani; 20 mg/L, A = compound I-72, B = coumoxystrobin) was 0%. It also gave a Control efficacy (Rhizoctonia solani; 20 mg/L, A = compound I-72, B = pyraoxystrobin) of 0%, an LC50 (adult Phyllotreta spp.) of 3.01 µg/mL and an LC50 [2] of 2.83 µg/mL. It also gave an LC50 [3] of 0.0897 µg/mL, an LC50 [4] of 8.14 µg/mL and an LC50 [5] of 0.811 µg/mL.
